Data: patent US11162071B2, “Compositions and methods for generating hair cells by upregulating JAG-1” (Frequency Therapeutics, Inc., priority 2018, dated 2021)
Entries after “also recorded” stand apart in the source; their conditions may differ.

Experiments:
[1] = tested on: cochlear Lgr5 progenitor cells; experiment: Expansion and enrichment of Lgr5-GFP cochlear progenitor cells in 3D culture (Lgr5+ assay); format: cell-based, mouse
Source text: “Stem Cell Proliferation Assay” as used herein is an assay to determine the capacity for agent(s) to induce the creation of stem cells from a starting cell population. In an exemplary Stem Cell Proliferation Assay, the number of cells for an initial cell population is harvested from a Lgr5-GFP mouse such as a B6.129P2-Lgr5tm1(cre/ERT2)Cle/J mouse (also known as Lgr5-EGFP-IRES-creERT2 or Lgr5-GFP mouse, Jackson Lab Stock No: 008875) between the age of 0 to 5 days, by isolating the organ of Corti sensory epithelium and dissociating the epithelium into single cells. Approximately 5000 cells are entrapped in 40 μl of culture substrate (for example: Matrigel (Corning, Growth Factor Reduced)) and placed at the center of wells in a 24-well plate with 500 μl of an appropriate culture media, growth factors and agent being tested. Appropriate culture media and growth factors include Advanced DMEM/F12 with media Supplements (1×N2, 1× B27, 2 mM Glutamax, 10 mM HEPES, 1 mM N-acetylcysteine, and 100 U/ml Penicillin/100 μg/ml Streptomycin) and growth factors (50 ng/ml EGF, 50 ng/ml bFGF, and 50 ng/ml IGF-1) as well as the agent(s) being assessed are added into each well. Cells are cultured for 10 days in a standard cell culture incubator at 37° C. and 5% CO2, with media change every 2 days. The number of Lgr5+ cells is quantified by counting the number of cells identified as Lgr5+ in an In Vitro Lgr5 activity assay. The fraction of cells that are Lgr5+ is quantified by dividing the number of cells identified as Lgr5+ in a cell population by the total number of cells present in the cell population. The number of hair cells in a population may be measured by staining with hair cell marker (e.g., Myosin VIIa), or using an endogenous reporter of hair cell genes (e.g., Pou4f3-GFP, Atoh1-nGFP) and analyzing using flow cytometry. The fraction of cells that are hair cells is quantified by dividing the number of cells identified as hair cells in a cell population by the total number of cells present in the cell population. Gene and/or protein expression and/or activity is measured in this assay using methods known in the art such as by PCR, Nanostring, immunostaining, RNAseq, RNA hybridization, or Western blot analysis.
Neonatal Lgr5-EGFP-IRES-Cre-ER mice (The Jackson Laboratory, strain 8875) were used to analyze the effects of small molecules on cochlear stem cell expansion (see Barker et al., Nature 449, 1003-7 (2007). This strain allowed for visualization and quantification of EGFP cells.
All animal studies were conducted under an approved institutional protocol per National Institutes of Health guidelines. Using neonatal animals, cochleae were dissected and the organ of Corti (sensory epithelium) was separated from the stria vascularis (ion transport epithelium) and the modiolus (nerve tissue). Epithelia were then collected and treated with TrypLE for 15-20 minutes to obtain single cells. The cells were then filtered ([…]) and suspended in a Matrigel (Corning) dome for 3D culture seeded at 0.5 cochlea per well.
Expansion of Lgr5 Cells: Cells were cultured in a 3D system and bathed in a serum free 1:1 mixture of DMEM and F12, supplemented with Glutamax (GIBCO), N2, B27 (Invitrogen), EGF (50 ng/mL; Chemicon), bFGF (50 ng/mL; Chemicon), IGF-1 (50 ng/mL; Chemicon), and small molecules for seven days. Media was changed every other day. Treatments were run in triplicate or quadruplicate.
Lgr5 cells were quantified after 7-10 days. Cell colonies were dissociated into single cells using TrypLE. The cells were then stained with propidium iodide (PI) and analyzed using a flow cytometer to count Lgr5-EGFP cells. The percentage of viable Lgr5 cells was plotted against the concentration in GraphPad Prism.
Organ of Corti are dissected from Lgr5 GFP+ mice and dissociated as single cells as described above. Background media contains the same supplements and growth factors at the same concentrations as described above. […]

[2] = tested on: HDAC; conditions: Table 6, cited from earlier work; for Class selectivity: HDAC class
[3] = tested on: Jag-1; experiment: Jag-1 expression in cultured Lgr5+ cells, Western blot band intensity normalized to GAPDH; format: cell-based, mouse
Description: Calculated Jag-1 normalized to GAPDH using GelQuant software and bands quantified. Net volumes of Jag-1 bands were divided by net volume values of matched GAPDH bands. These values were normalized to vehicle in a background of growth factors including: 50 ng/mL EGF (E), 50 ng/mL bFGF (F), and 50 ng/mL IGF1 (I).
Cultures contained a background of growth factors including: 50 ng/mL EGF (E), 50 ng/mL bFGF (F), and 50 ng/mL IGF1 (I).
Calculated Jag-1 normalized to GAPDH using GelQuant software and bands quantified. Net volumes of Jag-1 bands were divided by net volume values of matched GAPDH bands. These values were normalized to vehicle.

[4] = tested on: Jag-1; experiment: Jag-1 upregulation/expression in cultured Lgr5+ cells (qPCR); format: cell-based, mouse; conditions: for Jag-1 upregulation: EFI background (FIG. 3)
[5] = molecular target: GSK-3 alpha (Homo sapiens, UniProt P49840); conditions: Table 3; cited from earlier work
Chain of GSK-3 alpha (Homo sapiens, UniProt P49840) (P49840 whole entry): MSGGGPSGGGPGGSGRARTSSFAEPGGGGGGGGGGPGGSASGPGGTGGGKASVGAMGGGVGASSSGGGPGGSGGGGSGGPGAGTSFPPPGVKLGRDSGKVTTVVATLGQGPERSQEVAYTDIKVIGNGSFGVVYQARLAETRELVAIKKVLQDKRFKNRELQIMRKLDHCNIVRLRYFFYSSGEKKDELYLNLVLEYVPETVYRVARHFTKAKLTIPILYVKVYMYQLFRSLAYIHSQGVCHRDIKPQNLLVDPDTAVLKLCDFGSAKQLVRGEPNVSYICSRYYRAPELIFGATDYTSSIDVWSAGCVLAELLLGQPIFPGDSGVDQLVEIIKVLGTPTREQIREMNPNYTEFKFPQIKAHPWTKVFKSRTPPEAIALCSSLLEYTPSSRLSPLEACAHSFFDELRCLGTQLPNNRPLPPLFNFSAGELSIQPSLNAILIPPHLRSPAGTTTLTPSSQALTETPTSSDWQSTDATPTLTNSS

[6] = molecular target: GSK-3 alpha (Homo sapiens, UniProt P49841); conditions: GSK-3 alpha of Table 3; cited from earlier work
Chain of GSK-3 alpha (Homo sapiens, UniProt P49841) (P49841 whole entry): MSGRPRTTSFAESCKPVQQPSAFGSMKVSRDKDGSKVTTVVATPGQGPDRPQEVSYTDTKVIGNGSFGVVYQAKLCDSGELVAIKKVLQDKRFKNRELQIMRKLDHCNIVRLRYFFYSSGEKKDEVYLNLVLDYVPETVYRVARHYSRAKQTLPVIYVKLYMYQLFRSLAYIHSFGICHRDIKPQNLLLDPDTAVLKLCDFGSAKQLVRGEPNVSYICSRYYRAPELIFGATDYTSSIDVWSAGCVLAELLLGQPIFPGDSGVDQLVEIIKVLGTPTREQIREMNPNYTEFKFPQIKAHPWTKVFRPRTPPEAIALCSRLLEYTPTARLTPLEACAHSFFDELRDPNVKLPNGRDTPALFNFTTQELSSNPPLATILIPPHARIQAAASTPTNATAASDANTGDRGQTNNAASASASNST

[7] = tested on: HDAC; experiment: HDAC inhibition in Lgr5 cell culture (FIG. 5); format: cell-based; conditions: with and without CHIR; EFI background (FIG. 5)
[8] = 1,4-DPCA 370 nM with CHIR 4 μM + VPA 1 mM, versus CHIR+VPA, EFI background
[9] = AS1842856 425 nM alone, EFI background
[10] = AS1842856 concentration series, EFI background (FIG. 7)
[11] = control compounds CHIR99021 4 μM and Valproic Acid 1 mM, EFI background
[12] = SF1670 0.1 μM added to CHIR, versus CHIR, EFI background
[13] = daprodustat 1.11 μM with CHIR 4 μM + VPA 1 mM, versus CHIR and CHIR+VPA, EFI background
[14] = VO-Ohpic 3 μM added to CHIR, versus CHIR, EFI background

O=C(O)c1c[nH]c2c(ccc3cccnc32)c1=O [1,4-DPCA, 4,4α-dihydro-4-oxo-1,10-phenanthroline-3-carboxylic acid]
Lgr5 GFP+ progenitor cell proliferation [1, 8]: enhances Lgr5 GFP+ progenitor cell proliferation
enrichment of Lgr5 GFP+ progenitor cells [1, 8]: shows a trend for enrichment; also recorded: enhances Lgr5 GFP+ progenitor cell proliferation and enrichment
enrichment of Lgr5 GFP+ cochlear progenitor cells ([1]; agent alone, EFI background): does not enrich; also recorded: does not proliferate or enrich
proliferation of Lgr5 GFP+ cochlear progenitor cells ([1]; agent alone, EFI background): does not proliferate

C#CCC(CCCCCC)C(=O)O (centres unmarked) [2-hexyl-4-pentynoic acid]
Class selectivity [2]: Class I
HDAC Potenc [2]: 13 µM

CCn1cc(C(=O)O)c(=O)c2c(N)c(F)c(NC3CCCCC3)cc21 [AS1842856]
expansion of cochlear Lgr5+ progenitor cells [1, 9]: elicits the expansion
enrichment of Lgr5 cells (percentage) ([1]; AS1842856 425 nM combined with VPA 1 mM, EFI background): enriched
LGR5+ cell growth (Lgr5 GFP(+) Cell Count) [1, 10]: concentration-dependent effects; also recorded: enhances expansion of cochlear progenitor cells concentration-dependent manner
enrichment (Lgr5 GFP (%)) [1, 10]: concentration-dependent effects
Lgr5-GFP colony formation ([1]; images, AS1842856 425 nM, EFI background): promotes Lgr5-GFP colony formation
Jag-1 expression [3, 9]: upregulates Jag-1 expression
Jag-1 expression ([4]; qPCR, AS1842856 425 nM alone, EFI background): upregulates Jag-1 expression

N#Cc1ccc2[nH]c(O)c(-c3ccc(CN4CCOCC4)cn3)c2c1 [AZD 1080]
GSK-3 alpha [5]: 6.9 nM

Cc1c[nH]c(-c2cnc(NCCNc3ccc(C#N)cn3)nc2-c2ccc(Cl)cc2Cl)n1 [CHIR99021]
enrichment (percent LGR5-GFP(+) cell) of cochlear Lgr5 progenitor cells ([1]; CHIR alone, EFI background): elicits
expansion (LGR5-GFP(+) cell count) of cochlear Lgr5 progenitor cells ([1]; CHIR alone, background 50 ng/mL EGF, bFGF, IGF1 (EFI)): elicits the expansion
enrichment of Lgr5 GFP+ cochlear progenitor cells [1, 11]: enrich
Jag-1 upregulation ([4]; agent alone): upregulated Jag-1

O=C(O)CNC(=O)c1nc(Cl)c2ccccc2c1O [FG-2216, N-[(1-chloro-4-hydroxy-3-isoquinolinyl)carbonyl]-glycine]
Lgr5 GFP+ progenitor cell proliferation ([1]; FG-2216 30 μM with CHIR 4 μM + VPA 1 mM, versus CHIR and CHIR+VPA, EFI background): proliferates Lgr5 GFP+ progenitor cell similarly
enrichment of Lgr5 GFP+ progenitor cells ([1]; FG-2216 30 μM with CHIR 4 μM + VPA 1 mM, versus CHIR+VPA, EFI background): shows a trend for enhanced enrichment
Lgr5 GFP+ progenitor cell proliferation ([1]; FG-2216 30 μM with CHIR 4 μM, versus CHIR and CHIR+VPA 1 mM, EFI background): enhances Lgr5 GFP+ progenitor cell proliferation
enrichment of Lgr5 GFP+ progenitor cells ([1]; FG-2216 30 μM with CHIR 4 μM, versus CHIR+VPA 1 mM, EFI background): enhances enrichment; also recorded: enriches Lgr5 GFP+ progenitor cell enrichment
enrichment of Lgr5 GFP+ cochlear progenitor cells ([1]; agent alone, EFI background): does not enrich; also recorded: does not proliferate or enrich
proliferation of Lgr5 GFP+ cochlear progenitor cells ([1]; agent alone, EFI background): does not proliferate

Cc1ccc(C(=O)Nc2c[nH]nc2C(=O)NCCCOC(C)C)cn1 [GSK XXII]
GSK-3 alpha [5]: 2.3 nM
Lgr5+ Assay ([1]; concentration range in Lgr5+ assay, Table 3): 0.2 to 1 µM

O=C1NC(=O)C(c2cnc3ccccn23)=C1c1cn2c3c(cc(F)cc13)CN(C(=O)N1CCCCC1)CC2 [LY2090314, 3-(9-fluoro-2-(piperidine-1-carbonyl)-1,2,3,4-tetrahydro-[1,4]diazepino[6,7,1-hi]indol-7-yl)-4-(imidazo[1,2-a]pyridin-3-yl)-1H-pyrrole-2,5-dione]
GSK-3 alpha [5]: 2.1 nM
GSK-3 alpha [6]: 0.9 nM

CC(C)(C)C(=O)Nc1ccc2c(c1)C(=O)C(=O)c1ccccc1-2 [SF1670]
enrichment (percent LGR5-GFP(+) cell) of cochlear Lgr5 progenitor cells [1, 12]: further enhanced
expansion (LGR5-GFP(+) cell count) of cochlear Lgr5 progenitor cells [1, 12]: further enhanced

CCCC(CCC)C(=O)[O-].[Na+] [Sodium Valproate]
Class selectivity [2]: Class I
HDAC Potenc [2]: 39 to 161 µM
enrichment of Lgr5 GFP+ cochlear progenitor cells [1, 11]: enrich
Jag-1 upregulation ([3]; AS1842856 425 nM plus VPA 1 mM, versus AS1842856 alone): enhanced the effects of 425 nM AS1842856 on Jag-1 upregulation
HDAC inhibition [7]: concentration dependent increase in HDAC inhibition

O=C(O)CNC(=O)C1C(=O)N(C2CCCCC2)C(=O)N(C2CCCCC2)C1=O [daprodustat, N-[(1,3-dicyclohexylhexahydro-2,4,6-trioxo-5-pyrimidinyl)carbonyl]-glycine]
enrichment of Lgr5 GFP+ cochlear progenitor cells ([1]; agent alone, EFI background): does not enrich; also recorded: does not proliferate or enrich
proliferation of Lgr5 GFP+ cochlear progenitor cells ([1]; agent alone, EFI background): does not proliferate
Lgr5 GFP+ progenitor cell proliferation [1, 13]: does not enhance Lgr5 GFP+ progenitor cell proliferation
enrichment of Lgr5 GFP+ progenitor cells [1, 13]: enhances enrichment

Jag-1 peptide: soluble Jag-1 peptide (residues 188-204), CDDYYYGFGCNKFCRPR (SEQ ID NO:1) (listed as Homo sapiens)
Lgr5+ cell proliferation ([1]; 0.25 μM Jag-1 peptide added to 4 μM CHIR, EFI background): able to recapitulate enhancement of Lgr5+ cell proliferation; also recorded: enhances CHIR induced Lgr5+ cell proliferation

Na phenylbutyrate
Class selectivity [2]: Class I >
HDAC Potenc [2]: 9 to 16 µM

VO-Ohpic
enrichment (percent LGR5-GFP(+) cell) of cochlear Lgr5 progenitor cells [1, 14]: enhanced
expansion (LGR5-GFP(+) cell count) of cochlear Lgr5 progenitor cells [1, 14]: enhanced
Jag-1 upregulation ([4]; VO-Ohpic 3 μM added to CHIR, versus CHIR): enhanced; also recorded: synergistically enhances Jag-1 upregulation
Jag-1 upregulation ([4]; agent alone, listed as VO): does not upregulate Jag-1
HDAC inhibition [7]: does not elicit a detectable increase in HDAC inhibition
